Measurements: ChEMBL document CHEMBL3885861, “Open TG-GATES”

Species: Rattus norvegicus
Assay: Open TG-GATES - Regimen: Single
Format: toxicity, organism-based, Sprague-Dawley
Set-up: regimen Single, gender Male, age 6 weeks
Conditions: in vivo, ip, 0.01 mg/kg, route intraperitoneal injection, dose 10 ug/Kg, dose level High; for APTT / Bas / Eos / Fbg / Hb / Ht / Lym / MCH / MCHC / MCV / Mono / Neu / PT / Plat / RBC / Ret / WBC: tissue Blood; for KIDNEY_L / KIDNEY_R / KIDNEY_TOTAL: tissue Kidney; for LIVER: tissue Liver; for A/G / ALP / ALT / AST / BUN / CRE / Ca / Cl / DBIL / GLC / IP / K / LDH / Na / PL / RALB / TBIL / TC / TG / TP / gamma-GTP: tissue Plasma

H-KGDRLS-OH [TNF-ALPHA] gave a TERMINAL_BW (3 h) of 199.5 g, an APTT (3 h) of 15.7 s and a Bas (3 h) of 0.2%. The Eos (3 h) was 0.4%, the Fbg (3 h) was 279.2 mg/dL and the Hb (3 h) was 13.2 g/dL. The Ht (3 h) was 40.1%, the Lym (3 h) was 75% and the MCH (3 h) was 21.5 pg. The MCHC (3 h) was 32.8%, the MCV (3 h) was 65.3 fL and the Mono (3 h) was 4.4%. It also gave a Neu (3 h) of 18.8%, a PT (3 h) of 15.4 s and a Plat (3 h) of 115.5 x10_4/uL. For the same substance, the RBC (3 h) was 615.2 x10_4/ul, the Ret (3 h) was 9.2% and the WBC (3 h) was 82.2 x10_2/uL. For the same substance, the KIDNEY_L (3 h) was 0.9 g, the KIDNEY_R (3 h) was 0.9 g and the KIDNEY_TOTAL (3 h) was 1.7 g. It also gave an LIVER (3 h) of 8.8 g, an A/G (3 h) of 0.9 and an ALP (3 h) of 1307.2 IU/L. The ALT (3 h) was 43.6 IU/L, the AST (3 h) was 79.2 IU/L and the BUN (3 h) was 10.4 mg/dL. The CRE (3 h) was 0.2 mg/dL, the Ca (3 h) was 10.7 mg/dL and the Cl (3 h) was 105.8 meq/L. For the same substance, the DBIL (3 h) was 0.01 mg/dL, the GLC (3 h) was 167 mg/dL and the IP (3 h) was 9.8 mg/dL. It also gave a K (3 h) of 4 meq/L, an LDH (3 h) of 71 IU/L and a Na (3 h) of 142.4 meq/L. For the same substance, the PL (3 h) was 141.2 mg/dL, the RALB (3 h) was 2.4 g/dL and the TBIL (3 h) was 0.062 mg/dL. The TC (3 h) was 77.8 mg/dL, the TG (3 h) was 50.4 mg/dL and the TP (3 h) was 5.2 g/dL. The gamma-GTP (3 h) was 1.2 IU/L, the TERMINAL_BW (6 h) was 194.4 g and the APTT (6 h) was 18.1 s. For the same substance, the Bas (6 h) was 0%, the Eos (6 h) was 0.2% and the Fbg (6 h) was 349.4 mg/dL. It also gave a Hb (6 h) of 13.2 g/dL, a Ht (6 h) of 40.3% and a Lym (6 h) of 62.4%. The MCH (6 h) was 21 pg, the MCHC (6 h) was 32.9% and the MCV (6 h) was 63.8 fL. The Mono (6 h) was 2.6%, the Neu (6 h) was 34.2% and the PT (6 h) was 15 s. For the same substance, the Plat (6 h) was 106.9 x10_4/uL, the RBC (6 h) was 632.2 x10_4/ul and the Ret (6 h) was 7.9%. For the same substance, the WBC (6 h) was 58.5 x10_2/uL, the KIDNEY_L (6 h) was 0.9 g and the KIDNEY_R (6 h) was 0.9 g. For the same substance, the KIDNEY_TOTAL (6 h) was 1.8 g, the LIVER (6 h) was 8.5 g and the A/G (6 h) was 0.8. For the same substance, the ALP (6 h) was 1422.6 IU/L, the ALT (6 h) was 37.6 IU/L and the AST (6 h) was 73 IU/L. The BUN (6 h) was 8.6 mg/dL, the CRE (6 h) was 0.2 mg/dL and the Ca (6 h) was 10.8 mg/dL. It also gave a Cl (6 h) of 105.4 meq/L, a DBIL (6 h) of 0.008 mg/dL and a GLC (6 h) of 170.8 mg/dL. It also gave an IP (6 h) of 9.8 mg/dL, a K (6 h) of 3.8 meq/L and an LDH (6 h) of 67.2 IU/L. The Na (6 h) was 143.2 meq/L, the PL (6 h) was 162.2 mg/dL and the RALB (6 h) was 2.5 g/dL. For the same substance, the TBIL (6 h) was 0.06 mg/dL, the TC (6 h) was 91.8 mg/dL and the TG (6 h) was 40.2 mg/dL. It also gave a TP (6 h) of 5.4 g/dL, a gamma-GTP (6 h) of 1.4 IU/L and a TERMINAL_BW (9 h) of 194.6 g. It also gave an APTT (9 h) of 19.4 s, a Bas (9 h) of 0% and an Eos (9 h) of 0.6%. For the same substance, the Fbg (9 h) was 371 mg/dL, the Hb (9 h) was 13.4 g/dL and the Ht (9 h) was 40.6%. For the same substance, the Lym (9 h) was 69.8%, the MCH (9 h) was 21.4 pg and the MCHC (9 h) was 32.9%. The MCV (9 h) was 64.8 fL, the Mono (9 h) was 1.8% and the Neu (9 h) was 26.8%. It also gave a PT (9 h) of 15.3 s, a Plat (9 h) of 105.5 x10_4/uL and an RBC (9 h) of 627.6 x10_4/ul. For the same substance, the Ret (9 h) was 8.3%, the WBC (9 h) was 66.7 x10_2/uL and the KIDNEY_L (9 h) was 0.9 g. For the same substance, the KIDNEY_R (9 h) was 0.9 g, the KIDNEY_TOTAL (9 h) was 1.7 g and the LIVER (9 h) was 7.9 g. It also gave an A/G (9 h) of 0.8, an ALP (9 h) of 1174.4 IU/L and an ALT (9 h) of 32.6 IU/L. It also gave an AST (9 h) of 62.8 IU/L, a BUN (9 h) of 7.2 mg/dL and a CRE (9 h) of 0.2 mg/dL. For the same substance, the Ca (9 h) was 10.8 mg/dL, the Cl (9 h) was 104.4 meq/L and the DBIL (9 h) was 0.004 mg/dL. The GLC (9 h) was 167.2 mg/dL, the IP (9 h) was 10.2 mg/dL and the K (9 h) was 3.9 meq/L. It also gave an LDH (9 h) of 55.2 IU/L, a Na (9 h) of 141.6 meq/L and a PL (9 h) of 159.2 mg/dL. The RALB (9 h) was 2.5 g/dL, the TBIL (9 h) was 0.064 mg/dL and the TC (9 h) was 96.6 mg/dL. For the same substance, the TG (9 h) was 22.2 mg/dL, the TP (9 h) was 5.5 g/dL and the gamma-GTP (9 h) was 1.4 IU/L. For the same substance, the TERMINAL_BW (24 h) was 211.6 g, the APTT (24 h) was 15.6 s and the Bas (24 h) was 0.2%. It also gave an Eos (24 h) of 0.8%, a Fbg (24 h) of 323.4 mg/dL and a Hb (24 h) of 13.1 g/dL. For the same substance, the Ht (24 h) was 40.2%, the Lym (24 h) was 80.4% and the MCH (24 h) was 21.5 pg. It also gave an MCHC (24 h) of 32.6%, an MCV (24 h) of 65.8 fL and a Mono (24 h) of 3%. For the same substance, the Neu (24 h) was 15%, the PT (24 h) was 15.5 s and the Plat (24 h) was 116.4 x10_4/uL. It also gave an RBC (24 h) of 610.2 x10_4/ul, a Ret (24 h) of 8.5% and a WBC (24 h) of 77.3 x10_2/uL. The KIDNEY_L (24 h) was 1 g, the KIDNEY_R (24 h) was 0.9 g and the KIDNEY_TOTAL (24 h) was 1.9 g. It also gave an LIVER (24 h) of 9.8 g, an A/G (24 h) of 0.8 and an ALP (24 h) of 1565.6 IU/L. The ALT (24 h) was 47.8 IU/L, the AST (24 h) was 69.6 IU/L and the BUN (24 h) was 15.4 mg/dL. The CRE (24 h) was 0.2 mg/dL, the Ca (24 h) was 11.1 mg/dL and the Cl (24 h) was 106.6 meq/L. It also gave a DBIL (24 h) of 0.012 mg/dL, a GLC (24 h) of 190 mg/dL and an IP (24 h) of 8.9 mg/dL. For the same substance, the K (24 h) was 4.4 meq/L, the LDH (24 h) was 93.6 IU/L and the Na (24 h) was 142.2 meq/L. The PL (24 h) was 156 mg/dL, the RALB (24 h) was 2.6 g/dL and the TBIL (24 h) was 0.042 mg/dL. For the same substance, the TC (24 h) was 83.6 mg/dL, the TG (24 h) was 76.2 mg/dL and the TP (24 h) was 5.7 g/dL. The gamma-GTP (24 h) was 1 IU/L.
